In patent US20220289903A1, “POLYMER AND COMPOSITION FROM RENEWABLE SOURCE” (ÅBO AKADEMI UNIVERSITY, priority 2019, published 2022):

Columns and labels:
MDAMB-231 cells = experiment: WST-1 cell viability assay, cancer cells; conditions: 25-150 μg/mL DOX, 24 hours and 72 hours
[1] = test system: Murine breast cancer (4T1) cells; experiment: In vivo study in tumor-bearing mice; conditions: equivalent doxorubicin dose 7.5 mg/kg i.v. on alternate day, 4T1 tumor Balb/c mice
Procedure: All animal experiments were done with the approval of Institutional Animal Ethical Committee (IAEC), National Institute of Immunology, New Delhi. Murine breast cancer (4T1) cells ([…]) in 200 μL of FBS were injected subcutaneously into the right flanks of 5-week-old female Balb/c mice. Mice were randomized into four groups (6 mice in each group) after they developed a tumor of ˜75 mm^3. […] Tumor measurements were made every alternate day using a digital caliper, and tumor volume was calculated using the formula L×B2/2 where L and B are the length and breadth of the tumor. Each mouse was weighed before dosing and weight loss with respect to dosing. The survival study was continued until the last mouse was found live in all the groups. […] FIG. 9B represents an example of the weight change (%) of Balb/c mice vs injection day when treated as above.

COc1cccc2c1C(=O)c1c(O)c3c(c(O)c1C2=O)C[C@@](O)(C(=O)CO)C[C@@H]3O[C@H]1C[C@H](N)[C@H](O)[C@H](C)O1.Cl [DOX, doxorubicin HCl]
percentage proliferation (cytotoxicity) (MDAMB-231 cells): equally cytotoxic regardless the cell line used | number of doses after which all animals of the group died [1]: 4 doses
